PubChem BioAssay AID1963853 (Molecular Pharmacology Branch, DTP, NCI, 2024)
pIC50: −log10 of the molar value.

System: 266295-075-R-J1-PDC spheroid viability
Assay: Anticancer human tumor 266295-075-R-J1-PDC patient-derived head and neck squamous carcinoma cell line growth inhibition [POLQ]
Conditions: spheroids with HUVEC and MSC; for pIC50: curve of first compound; for viability, T/C: stronger effect = lower value
Summary of the method: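 Complex spheroid viability model combining PDC tumour cells with endothelial (HUVEC) and MSC stromal cells. Novobiocin, ART-558 or RP6685 were tested singly and in combination with standard and investigational anticancer drugs. Each was titrated in half-log steps from near clinical Cmax, or from 10 microM where Cmax was unknown.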

[1] = second compound 0.0316 µM, first compound 0.0316 µM
[2] = second compound 0.0316 µM, first compound 0.1 µM
[3] = second compound 0.0316 µM, first compound 0.316 µM
[4] = second compound 0.0316 µM, first compound 1 µM
[5] = second compound 0.0316 µM, first compound 3.16 µM
[6] = second compound 0.0316 µM, first compound 10 µM
[7] = second compound 0.1 µM, first compound 0.0316 µM
[8] = second compound 0.1 µM, first compound 0.1 µM
[9] = second compound 0.1 µM, first compound 0.316 µM
[10] = second compound 0.1 µM, first compound 1 µM
[11] = second compound 0.1 µM, first compound 3.16 µM
[12] = second compound 0.1 µM, first compound 10 µM
[13] = second compound 0.316 µM, first compound 0.0316 µM
[14] = second compound 0.316 µM, first compound 0.1 µM
[15] = second compound 0.316 µM, first compound 0.316 µM
[16] = second compound 0.316 µM, first compound 1 µM
[17] = second compound 0.316 µM, first compound 3.16 µM
[18] = second compound 0.316 µM, first compound 10 µM
[19] = second compound 1 µM, first compound 0.0316 µM
[20] = second compound 1 µM, first compound 0.1 µM
[21] = second compound 1 µM, first compound 0.316 µM
[22] = second compound 1 µM, first compound 1 µM
[23] = second compound 1 µM, first compound 3.16 µM
[24] = second compound 1 µM, first compound 10 µM
[25] = second compound 3.16 µM, first compound 0.0316 µM
[26] = second compound 3.16 µM, first compound 0.1 µM
[27] = second compound 3.16 µM, first compound 0.316 µM
[28] = second compound 3.16 µM, first compound 1 µM
[29] = second compound 3.16 µM, first compound 3.16 µM
[30] = second compound 3.16 µM, first compound 10 µM
[31] = second compound 10 µM, first compound 0.0316 µM
[32] = second compound 10 µM, first compound 0.1 µM
[33] = second compound 10 µM, first compound 0.316 µM
[34] = second compound 10 µM, first compound 1 µM
[35] = second compound 10 µM, first compound 3.16 µM
[36] = second compound 10 µM, first compound 10 µM
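Further: spheroids exposed to compounds for seven days before readout.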

COc1cc(C2c3cc4c(cc3C(OC3OC5COC(C)OC5C(O)C3O)C3COC(=O)C23)OCO4)cc(OC)c1O (stereo unspecified) + Cc1cccc(N(C)C(=O)C2C(O)CCN2c2nc(C)cc(C(F)(F)F)c2C#N)c1
pIC50 (second compound 0.0316 µM): < 5.00 | pIC50 (second compound 0.1 µM): < 5.00 | pIC50 (second compound 0.316 µM): < 5.00 | pIC50 (second compound 1 µM): < 5.00 | pIC50 (second compound 3.16 µM): < 5.00 | pIC50 (second compound 10 µM): < 5.00 | viability, T/C [1]: 83.3% | viability, T/C [2]: 75.2% | viability, T/C [3]: 82.2% | viability, T/C [4]: 75.8% | viability, T/C [5]: 75.3% | viability, T/C [6]: 64.9% | viability, T/C [7]: 78.8% | viability, T/C [8]: 82.2% | viability, T/C [9]: 72.5% | viability, T/C [10]: 69.4% | viability, T/C [11]: 70.7% | viability, T/C [12]: 70.2% | viability, T/C [13]: 96.5% | viability, T/C [14]: 73.1% | viability, T/C [15]: 73.9% | viability, T/C [16]: 76.3% | viability, T/C [17]: 73.1% | viability, T/C [18]: 57.9% | viability, T/C [19]: 86.1% | viability, T/C [20]: 95.4% | viability, T/C [21]: 82% | viability, T/C [22]: 86.2% | viability, T/C [23]: 73.4% | viability, T/C [24]: 68.1% | viability, T/C [25]: 85.8% | viability, T/C [26]: 76.2% | viability, T/C [27]: 77.5% | viability, T/C [28]: 68.5% | viability, T/C [29]: 68.1% | viability, T/C [30]: 62.8% | viability, T/C [31]: 101% | viability, T/C [32]: 72.5% | viability, T/C [33]: 69.2% | viability, T/C [34]: 72.2% | viability, T/C [35]: 72.5% | viability, T/C [36]: 60%

CC(C)n1c(=O)n(C)c2cnc3cc(F)c(-c4ccc(OCCCN5CCCCC5)nc4)cc3c21 + Cc1cccc(N(C)C(=O)C2C(O)CCN2c2nc(C)cc(C(F)(F)F)c2C#N)c1
pIC50 (second compound 0.0316 µM): < 5.00 | pIC50 (second compound 0.1 µM): < 5.00 | pIC50 (second compound 0.316 µM): < 5.00 | pIC50 (second compound 1 µM): < 5.00 | pIC50 (second compound 3.16 µM): < 5.00 | pIC50 (second compound 10 µM): < 5.00 | viability, T/C [1]: 101% | viability, T/C [2]: 127% | viability, T/C [3]: 95.2% | viability, T/C [4]: 73.6% | viability, T/C [5]: 93.2% | viability, T/C [6]: 60.7% | viability, T/C [7]: 99.1% | viability, T/C [8]: 111% | viability, T/C [9]: 98.9% | viability, T/C [10]: 83.4% | viability, T/C [11]: 73.5% | viability, T/C [12]: 69.8% | viability, T/C [13]: 125% | viability, T/C [14]: 118% | viability, T/C [15]: 96.8% | viability, T/C [16]: 90.8% | viability, T/C [17]: 88.1% | viability, T/C [18]: 61.9% | viability, T/C [19]: 103% | viability, T/C [20]: 90.8% | viability, T/C [21]: 95.3% | viability, T/C [22]: 91.3% | viability, T/C [23]: 78.4% | viability, T/C [24]: 60.3% | viability, T/C [25]: 91.8% | viability, T/C [26]: 95.4% | viability, T/C [27]: 88.8% | viability, T/C [28]: 90.8% | viability, T/C [29]: 80.2% | viability, T/C [30]: 64.9% | viability, T/C [31]: 97.3% | viability, T/C [32]: 103% | viability, T/C [33]: 96.5% | viability, T/C [34]: 100% | viability, T/C [35]: 78.9% | viability, T/C [36]: 67.1%

Nc1ccn(C2OC(CO)C(O)C2(F)F)c(=O)n1 (stereo unspecified) + COC1C(OC(N)=O)C(O)C(Oc2ccc3c(O)c(NC(=O)c4ccc(O)c(CC=C(C)C)c4)c(=O)oc3c2C)OC1(C)C
pIC50 (second compound 0.0316 µM): < 5.00 | pIC50 (second compound 0.1 µM): < 5.00 | pIC50 (second compound 0.316 µM): < 5.00 | pIC50 (second compound 1 µM): < 5.00 | pIC50 (second compound 3.16 µM): < 5.00 | pIC50 (second compound 10 µM): < 5.00 | viability, T/C [1]: 109% | viability, T/C [2]: 82% | viability, T/C [3]: 77.3% | viability, T/C [4]: 101% | viability, T/C [5]: 81.3% | viability, T/C [6]: 77.9% | viability, T/C [7]: 107% | viability, T/C [8]: 91.9% | viability, T/C [9]: 82.6% | viability, T/C [10]: 84% | viability, T/C [11]: 91.1% | viability, T/C [12]: 75.2% | viability, T/C [13]: 100% | viability, T/C [14]: 85.9% | viability, T/C [15]: 90.8% | viability, T/C [16]: 82.4% | viability, T/C [17]: 78.7% | viability, T/C [18]: 77.1% | viability, T/C [19]: 104% | viability, T/C [20]: 78.1% | viability, T/C [21]: 87% | viability, T/C [22]: 84.5% | viability, T/C [23]: 93.6% | viability, T/C [24]: 87.4% | viability, T/C [25]: 105% | viability, T/C [26]: 102% | viability, T/C [27]: 89.6% | viability, T/C [28]: 81.8% | viability, T/C [29]: 85.3% | viability, T/C [30]: 83.2% | viability, T/C [31]: 109% | viability, T/C [32]: 87.2% | viability, T/C [33]: 84.6% | viability, T/C [34]: 97.6% | viability, T/C [35]: 82.3% | viability, T/C [36]: 84.9%
